ChEMBL document CHEMBL1151126, “Studies on inhibitors of skin tumor promotion, III. Inhibitory effects of isoflavonoids from Wisteria brachybotrys on Epstein-Barr virus activation” (J Nat Prod, 1988)
The source made the active and inactive calls. The calls are words filed in the database; no cut-off is given here.

How the values were obtained:
[1] = Cytotoxicity against human Raji cells assessed as cell viability at 10 molar ratio; type: cell-based; conditions: read-out: Activity
HeLa [2] = assay: Cytotoxicity in human HeLa cells assessed as effect on cell viability at 50 uM after 1 hr; type: cell-based
Mus musculus = species: Mus musculus; assay: Displacement of [3H]TPA from TPA receptor in ICR mouse epidermal particulate fraction by Me2CO filter method
Raji [3] = assay: Inhibition of 12-O-tetradecanoylphorbol-13-acetate-induced EBV-early antigen activation in human Raji cells assessed as early antigen induction at 100 molar ratio after 48 hrs by indirect immunofluorescence technique relative to TPA; type: cell-based; set-up: scale not given: the % may be the effect or the level left; conditions: human gammaherpesvirus 4
HeLa [4] = assay: Cytotoxicity in human HeLa cells assessed as decrease in cell number at 50 uM after 1 hr; type: cell-based
HeLa [5] = assay: Inhibition of TPA-stimulated [32P] incorporation into phospholipids in human HeLa cells at 50 uM after 1 hr; type: functional
Raji [6] = assay: Inhibition of 12-O-tetradecanoylphorbol-13-acetate-induced EBV-early antigen activation in human Raji cells assessed as early antigen induction at 10 molar ratio after 48 hrs by indirect immunofluorescence technique relative to TPA; type: cell-based; set-up: scale not given: the % may be the effect or the level left; conditions: human gammaherpesvirus 4
Raji [7] = assay: Inhibition of EBV-early antigen activation in human Raji cells assessed as early antigen activation at 320 nM; type: cell-based; set-up: scale not given: the % may be the effect or the level left; conditions: human gammaherpesvirus 4
[8] = Cytotoxicity against human Raji cells assessed as cell viability at 1000 molar ratio; type: cell-based; conditions: read-out: Activity
Raji [9] = assay: Inhibition of 12-O-tetradecanoylphorbol-13-acetate-induced EBV-early antigen activation in human Raji cells assessed as early antigen induction at 10000 molar ratio after 48 hrs by indirect immunofluorescence technique relative to TPA; type: cell-based; set-up: scale not given: the % may be the effect or the level left; conditions: human gammaherpesvirus 4
[10] = Cytotoxicity against human Raji cells assessed as cell viability at 100 molar ratio; type: cell-based; conditions: read-out: Activity
Raji [11] = assay: Inhibition of 12-O-tetradecanoylphorbol-13-acetate-induced EBV-early antigen activation in human Raji cells assessed as early antigen induction at 1000 molar ratio after 48 hrs by indirect immunofluorescence technique relative to TPA; type: cell-based; set-up: scale not given: the % may be the effect or the level left; conditions: human gammaherpesvirus 4
[12] = Cytotoxicity against human Raji cells assessed as cell viability at 10000 molar ratio; type: cell-based; conditions: read-out: Activity

| Structure (SMILES) | viability at 10 molar ratio [1] | Activity (HeLa [2]) | Activity (Mus musculus) | Activity (Raji [3]) | Activity (HeLa [4]) | inhibition at 50 µM (HeLa [5]) | Activity (Raji [6]) | Activity (Raji [7]) | viability at 1000 molar ratio [8] | Activity (Raji [9]) | viability at 100 molar ratio [10] | Activity (Raji [11]) | viability at 10000 molar ratio [12] |
| --- | --- | --- | --- | --- | --- | --- | --- | --- | --- | --- | --- | --- | --- |
| COc1ccc(-c2coc3cc(OC(C)=O)c(OC)cc3c2=O)cc1 | 100% | Non-toxic | inactive | 42.3% | Non-toxic | 33.9% | 72.7% | 2.1% | > 80% | 0% | > 80% | 6% | 80% |
| COc1ccc(-c2coc3cc(OC(C)=O)ccc3c2=O)cc1 | 100% | Non-toxic |  | 95.2% | Non-toxic | 40.2% | 100% | 0% | > 80% | 0% | 100% | 15.2% | 80% |
| C=C[C@]1(C)CC[C@@](C)(C(C)C)c2cc3c4c(c[nH]c4c21)C[C@@H](CO)NC(=O)[C@H](C(C)C)N3C |  |  | Active |  |  |  |  |  |  |  |  |  |  |
| CCCCCCCCCCCCCC(=O)O[C@@H]1[C@@H](C)[C@@]2(O)[C@@H](C=C(CO)C[C@]3(O)C(=O)C(C)=C[C@@H]23)[C@@H]2C(C)(C)[C@]12OC(C)=O |  |  | Active |  |  |  |  |  |  |  |  |  |  |
| COc1ccc(-c2coc3cc(O)c(OC)cc3c2=O)cc1 [CASTANIN] | 100% | Non-toxic | inactive | 75.8% | Non-toxic | 16.4% | 100% | 34% | > 80% | 0% | > 80% | 36.4% | 80% |
| COc1ccc(-c2coc3cc(O)ccc3c2=O)cc1 [FORMONONETIN] | 100% | Non-toxic | inactive | 92.6% | Non-toxic | 34.5% | 100% | 0% | > 80% | 0% | > 80% | 63.6% | 20% |
| COc1ccc(-c2coc3cc(O[C@@H]4O[C@H](CO)[C@@H](O)[C@H](O)[C@H]4O)ccc3c2=O)cc1 [ONONIN] | 100% | Non-toxic |  | 100% | Non-toxic | 12.3% | 100% | 2% | > 80% | 39.3% | 100% | 76% | 80% |
| COc1ccc(-c2coc3cc(O[C@@H]4O[C@H](CO)[C@@H](O)[C@H](O)[C@H]4O)c(OC)cc3c2=O)cc1 [WISTIN] | 100% | Non-toxic |  | 86.6% | Non-toxic | 0% | 100% | 0% | > 80% | 15.2% | > 80% | 78.5% | 50% |
